Columns and labels:
[1] = target: T1, muscle-type nicotinic acetylcholine receptors (Homo sapiens, UniProt P02708+P07510+Q07001); test: Determination of interaction with muscle receptors; type: cell-based; details: maximal activation as percentage of maximal activation induced by (S)-(-)-nicotine; for Emax: read-out: effect at muscle sites (Emax)
T1 construct: endogenous in cells; host or cells: TE671/RD (own knowledge of the cited US 5,597,919)
Method: (§1) The determination of the interaction of the compounds with muscle receptors was carried out in accordance with the techniques described in U.S. Pat. No. 5,597,919 to Dull et al. The maximal activation for individual compounds (Emax) was determined as a percentage of the maximal activation induced by (S)-(−)-nicotine. Reported Emax values represent the amount released relative to (S)-(−)-nicotine on a percentage basis. […] Such preferable compounds have the capability to activate human CNS receptors without activating muscle-type nicotinic acetylcholine receptors. Thus, there is provided a therapeutic window for utilization in the treatment of CNS disorders. […] The compounds begin to cause muscle effects only when employed in amounts of many times those required to activate dopamine release.

[2] = system: ganglia-type nicotinic acetylcholine receptors; test: Determination of interaction with ganglion receptors; type: cell-based; details: maximal activation as percentage of maximal activation induced by (S)-(-)-nicotine
Method: as §1, with “ganglionic” for “muscle”, “ganglia-type” for “muscle-type”, “cause” for “cause muscle”, “effects at ganglia” for “effects”

CNS nicotinic receptors = CNS nicotinic receptors (Rattus norvegicus, UniProt P09483+P12390); test: Determination of binding to relevant receptor sites; details: inhibition constants calculated from IC50 values by the method of Cheng et al.
Sequence of CNS nicotinic receptors (P09483 31-630): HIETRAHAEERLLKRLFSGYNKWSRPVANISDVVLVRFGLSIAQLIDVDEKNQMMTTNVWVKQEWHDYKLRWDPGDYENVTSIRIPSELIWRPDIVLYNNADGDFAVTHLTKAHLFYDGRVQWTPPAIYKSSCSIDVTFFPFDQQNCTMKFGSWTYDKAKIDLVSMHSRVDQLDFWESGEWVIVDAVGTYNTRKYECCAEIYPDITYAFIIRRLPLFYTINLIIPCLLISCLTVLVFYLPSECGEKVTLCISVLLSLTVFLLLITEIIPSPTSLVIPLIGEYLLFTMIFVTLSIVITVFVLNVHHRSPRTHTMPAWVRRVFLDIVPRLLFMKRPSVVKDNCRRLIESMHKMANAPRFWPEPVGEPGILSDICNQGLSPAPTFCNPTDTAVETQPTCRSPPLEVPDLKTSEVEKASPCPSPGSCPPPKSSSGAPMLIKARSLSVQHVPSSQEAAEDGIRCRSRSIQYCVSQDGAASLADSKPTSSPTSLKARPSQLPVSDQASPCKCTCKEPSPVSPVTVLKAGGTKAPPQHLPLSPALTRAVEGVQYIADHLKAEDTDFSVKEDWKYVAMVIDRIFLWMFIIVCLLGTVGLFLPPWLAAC
Sequence of CNS nicotinic receptors (P12390 25-500): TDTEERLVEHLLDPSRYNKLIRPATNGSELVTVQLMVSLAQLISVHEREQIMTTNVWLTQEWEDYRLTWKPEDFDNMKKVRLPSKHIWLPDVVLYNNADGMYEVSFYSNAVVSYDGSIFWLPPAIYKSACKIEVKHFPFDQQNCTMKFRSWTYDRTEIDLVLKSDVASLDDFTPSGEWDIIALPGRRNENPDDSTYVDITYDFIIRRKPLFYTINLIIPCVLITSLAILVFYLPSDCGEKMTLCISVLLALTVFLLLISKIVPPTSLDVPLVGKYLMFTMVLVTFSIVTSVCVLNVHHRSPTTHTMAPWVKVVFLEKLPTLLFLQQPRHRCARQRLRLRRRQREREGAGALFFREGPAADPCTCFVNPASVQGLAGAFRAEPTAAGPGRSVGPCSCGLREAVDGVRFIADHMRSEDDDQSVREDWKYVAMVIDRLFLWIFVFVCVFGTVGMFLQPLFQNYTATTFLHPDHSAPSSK
Method: Binding of the compounds to relevant receptor sites was determined in accordance with the techniques described in U.S. Pat. No. 5,597,919 to Dull et al. Inhibition constants (Ki values), reported in nM, were calculated from the IC50 values using the method of Cheng et al., Biochem, Pharmacol. 22:3099 (1973).

T1 sequence (P02708 21-457): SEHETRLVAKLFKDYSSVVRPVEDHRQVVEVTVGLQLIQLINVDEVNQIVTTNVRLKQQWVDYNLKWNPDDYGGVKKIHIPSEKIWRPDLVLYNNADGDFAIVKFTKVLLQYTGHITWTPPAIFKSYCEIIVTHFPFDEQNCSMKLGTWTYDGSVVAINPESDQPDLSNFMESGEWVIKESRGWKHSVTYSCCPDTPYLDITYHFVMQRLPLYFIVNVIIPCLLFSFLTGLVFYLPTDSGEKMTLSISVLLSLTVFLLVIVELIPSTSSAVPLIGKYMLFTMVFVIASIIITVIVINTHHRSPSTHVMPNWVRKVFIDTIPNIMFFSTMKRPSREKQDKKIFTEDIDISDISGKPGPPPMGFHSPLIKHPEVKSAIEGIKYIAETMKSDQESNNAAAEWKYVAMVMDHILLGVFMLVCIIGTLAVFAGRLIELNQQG
T1 sequence (P11230 24-501 partner): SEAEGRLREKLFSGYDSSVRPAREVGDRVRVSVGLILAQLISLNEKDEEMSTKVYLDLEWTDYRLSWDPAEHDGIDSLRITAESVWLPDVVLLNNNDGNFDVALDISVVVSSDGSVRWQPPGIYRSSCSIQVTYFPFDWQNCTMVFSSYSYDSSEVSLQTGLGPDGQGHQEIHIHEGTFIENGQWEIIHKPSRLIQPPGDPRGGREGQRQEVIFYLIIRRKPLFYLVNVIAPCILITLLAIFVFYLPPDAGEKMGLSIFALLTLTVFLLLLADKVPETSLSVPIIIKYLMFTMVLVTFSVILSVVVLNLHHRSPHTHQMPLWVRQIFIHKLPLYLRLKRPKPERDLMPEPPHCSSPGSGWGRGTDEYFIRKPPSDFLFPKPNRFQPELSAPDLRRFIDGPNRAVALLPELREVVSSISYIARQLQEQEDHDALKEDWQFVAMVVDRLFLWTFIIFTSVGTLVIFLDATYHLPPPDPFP
T1 sequence (Q07001 22-517): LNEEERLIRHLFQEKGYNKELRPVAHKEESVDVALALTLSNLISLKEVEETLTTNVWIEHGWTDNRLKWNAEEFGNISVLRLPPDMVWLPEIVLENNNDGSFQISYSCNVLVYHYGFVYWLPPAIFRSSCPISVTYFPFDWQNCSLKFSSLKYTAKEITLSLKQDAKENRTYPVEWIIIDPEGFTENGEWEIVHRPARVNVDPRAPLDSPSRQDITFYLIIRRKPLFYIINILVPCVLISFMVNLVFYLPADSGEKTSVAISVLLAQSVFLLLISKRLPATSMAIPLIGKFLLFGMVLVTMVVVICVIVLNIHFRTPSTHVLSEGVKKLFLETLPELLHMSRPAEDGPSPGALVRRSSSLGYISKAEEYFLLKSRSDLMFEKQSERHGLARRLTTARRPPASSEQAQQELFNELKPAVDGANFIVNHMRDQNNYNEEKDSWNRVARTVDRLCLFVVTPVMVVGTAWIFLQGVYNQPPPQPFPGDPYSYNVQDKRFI
T1 sequence (P07510 23-517): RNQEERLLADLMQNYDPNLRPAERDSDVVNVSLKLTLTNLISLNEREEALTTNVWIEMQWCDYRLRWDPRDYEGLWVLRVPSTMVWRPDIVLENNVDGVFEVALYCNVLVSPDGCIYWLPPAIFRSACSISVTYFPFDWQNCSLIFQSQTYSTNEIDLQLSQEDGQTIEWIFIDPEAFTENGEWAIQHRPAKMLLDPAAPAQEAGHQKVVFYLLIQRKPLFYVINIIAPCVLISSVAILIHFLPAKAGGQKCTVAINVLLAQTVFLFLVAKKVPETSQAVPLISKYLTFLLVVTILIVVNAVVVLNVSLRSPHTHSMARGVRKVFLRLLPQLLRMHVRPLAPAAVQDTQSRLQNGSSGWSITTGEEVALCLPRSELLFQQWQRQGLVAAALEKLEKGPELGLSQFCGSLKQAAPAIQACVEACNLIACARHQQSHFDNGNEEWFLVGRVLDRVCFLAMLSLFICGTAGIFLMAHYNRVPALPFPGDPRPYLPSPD

| Molecule | effect at muscle sites (Emax) [1] | effect at ganglia sites (Emax) [2] | Ki (CNS nicotinic receptors) | Emax [1] |
| --- | --- | --- | --- | --- |
| 3-(3-Pyridyloxy)propylamine Hemigalactarate [Example 10] | 0% | 0% |  |  |
| 3-(5-Chloro-3-pyridyloxy)propylamine Hemigalactarate [Example 15] | 0% | 4% |  |  |
| 4-(3-Pyridyloxy)butylamine Hemigalactarate [Example 12] | 0% | 11% |  |  |
| CNCCCSc1cncc(Br)c1 [Example 6, 3-(5-Bromo-3-pyridylthio))propyl)methylamine Hemigalactarate] |  |  | 40 µM |  |
| CN(C)CCOc1cccnc1 [Example 9, Dimethyl(2-(3-pyridyloxy)ethylamine Hemigalactarate] |  | 0% |  | 0% |
| Cl.Cl.c1cncc(OC2CCNCC2)c1 [Example 35, 3-(4-Piperidinyloxy)pyridine dihydrochloride] |  | 9% |  | 16% |
| (3-(3-Aminophenoxy)propyl)methylamine Hemigalactarate [Example 30] | 11% | 5% |  |  |
| (3-(5-Chloro(3-pyridyloxy))propyl)methylamine Hemigalactarate [Example 16] | 16% | 7% |  |  |
| Cyclopropyl(3-(3-pyridyloxy)propyl)amine Hemigalactarate [Example 25] | 9% | 10% |  |  |
| Dimethyl(3-(3-pyridyloxy)propyl)amine Hemigalactarate [Example 11] | 8% | 5% |  |  |
| Ethyl(3-(3-pyridyloxy)propyl)amine Hemigalactarate [Example 22] | 13% | 13% |  |  |
| Methyl(1-methyl-3-(3-pyridyloxy)propyl)amine Hemigalactarate [Example 26] | 16% | 20% |  |  |
| Methyl(2-(3-pyridyloxy)ethyl)amine Hemigalactarate [Example 8] | 0% | 0% |  |  |
| Methyl(3-(2-methyl(3-pyridyloxy))propyl)amine Hemigalactarate [Example 21] | 0% | 15% |  |  |
| Methyl(3-(3-nitrophenoxy)propyl)amine Hemigalactarate [Example 28] | 10% | 9% |  |  |
| Methyl(3-(5-(phenylmethoxy)(3-pyridyloxy))propyl)amine Hemigalactarate [Example 19] | 1% | 3% |  |  |
| Methyl(3-(5-isopropoxy-3-pyridyloxy)propyl)amine Monogalactarate [Example 18] | 22% | 0% |  |  |
| Methyl(3-(5-methoxy-3-pyridyloxy)propyl)amine Hemigalactarate [Example 17] | 10% | 5% |  |  |
| Methyl(3-(6-methyl(3-pyridyloxy))propyl)amine Hemigalactarate [Example 20] | 0% |  |  |  |
